Experimental data reported in publication PMC10838660, “Artificial intelligence-powered discovery of small molecules inhibiting CTLA-4 in cancer” (BJC reports, 2024).

Key:
tumor development = tested on: tumor development; parameters: method as in PMID 35254416; conditions: doses of 2 to 200 mg/kg; cited from earlier work
[1] = tested on: human DCs with allogeneic peripheral blood mononuclear cells; assay: Human DCs cultured with allogeneic PBMCs, flow cytometry; assay type: cell-based
Procedure: CD80 and CD86 on dendritic cells (DCs) interact with CD28 or CTLA-4 on T cells to regulate T-cell activation.
(§1) The ability of compounds to be immunostimulatory was measured by coculturing mouse-derived TILs with MC38 tumors grown in C57BL/6 mice. Tumors were digested using a Tumor Dissociation Kit (Miltenyi Biotec, 130-095-929). After cell isolation, TILs were extracted with a MagniSort Mouse CD45 isolation kit protocol (Invitrogen, 8802-6865-74). TILs were cocultured with MC38 cells for 48 h, and the expression levels of IFN-γ were detected with the AlphaLISA Mouse IFN-γ Detection Kit (PerkinElmer, AL501C). Human DCs and T cells from different patients were prepared and treated as described. For MC38 and human cancer cells treated with compounds, the CellTiter-Glo Luminescent Cell Viability Assay (Promega, G7570) was used to measure the viability.
Flow cytometry was used to measure subcellular populations in tumors. All flow cytometry analyses were performed using either an LSR II flow cytometer (BD Biosciences) or a Northern Lights-3000 flow cytometer (Cytek) and analyzed with FlowJo (Treestar, Inc.). All flow analyses were representative of at least 3 independent experiments using […] CD proteins 4, 8, and 25 (CD4, 116003; CD8, 100707; and CD25, 102011); Foxp3 (126409); and IFN-γ (506506) flow antibodies (Biolegend). Antimouse and antihuman CTLA-4 antibodies were purchased from BioLegend (106313) and Invitrogen (46-1529-42).

[2] = Body weight of treated hCTLA-4 mice; assay type: in vivo; conditions: MC38-inoculated hCTLA-4 mice, treated vs control
Source text: (§2) In hCTLA-4 mice, the ECD of the mouse Ctla-4 gene has been replaced with the human counterpart, yet the resulting protein still interacts effectively with mouse CD80 and CD86 [42]. […] Next, we measured the mice’s levels of serum cardiac troponin I type 3 (TNNI3), a marker associated with ipilimumab-induced irAEs. We found elevated serum TNNI3 levels in mice treated with ipilimumab, anti-PD-1, or anti-PD-1 plus D11, but not in mice treated with D11 alone (Fig. 4e). It is unclear why D11 monotherapy appeared to have a protective effect in comparison with anti-PD-1 alone. We also treated 2 human cells lines, HCT116 and MDA-MB231, with D11 and 5-fluorouracil, an antimetabolite drug that is widely used for the treatment of colorectal cancer. […] Thus, it is likely that D11 is weakly toxic to tumor cells and that its antitumor effects are largely due to its regulation of the immune response.
(§3) We next investigated analogs of the 5 anti-CTLA-4 compounds for possible refinement.

MC38 tumors [3] = assay: MC38 syngeneic tumors in C57BL/6 mice; assay type: in vivo
Procedure: C57BL/6 mice were purchased from the Charles River Laboratories. In hCTLA-4 mice, the exons encoding for the ECD and transmembrane domains of murine CTLA-4 were replaced with the human versions. All mice were maintained at the Research Animal Facility of Baylor College of Medicine, and all studies were conducted under an animal protocol approved by the Baylor College of Medicine Institutional Animal Care and Use Committee. Mice were challenged with 0.5 million MC38 colorectal cancer cells passaged the previous day at 75% confluence. For the prophylactic model, ipilimumab or small-molecule treatment began 1 day after tumor cell inoculation. For the therapeutic model, ipilimumab or small-molecule treatment was initiated 7 to 17 days after the injection of tumor cells, depending upon when the tumors reached an average size of approximately 100 mm^3. Tumor volumes were calculated with the formula volume = (width^2 × length)/2. Measurements were recorded every 2 to 3 days. For the histologic analyses, the internal organs, including the livers, kidneys, lungs, colons, and salivary glands, were fixed in 10% paraformal-dehyde for at least 24 h, cut from paraffin blocks in […] sections using a Microm HM 315 microtome, and mounted on SuperFrost Plus slides (Roth). Slides were stained with hematoxylin and eosin (Shandon Varistain [24–4] Automatic Stainer). For the histopathologic analysis of the internal organs harvested from mice that had been treated with therapeutic compounds or control antibodies, stained sections were prepared from the formalin-fixed tissue and were assessed in a blinded fashion.

[4] = tested on: mouse tumor-infiltrating lymphocytes (TILs); assay: IFN-γ production in mouse TILs cocultured with MC38 tumor cells; assay type: cell-based
Procedure: We examined the ability of these 5 anti-CTLA-4 compounds to stimulate interferon-γ (IFN-γ) production in mouse tumor-infiltrating lymphocytes (TILs). MC38 tumors grown in C57BL/6 mice were extracted to obtain CD45^+ TILs.
as §1

MC38 tumors [5] = assay: MC38 tumors in humanized CTLA-4 (hCTLA-4) mice; assay type: in vivo; conditions: for development of MC38 tumors: therapeutic, A9 and D11 25 mg/kg
Source text: as §2
Using another cohort of hCTLA-4 mice inoculated with MC38 cells, we treated animals (n = 5 per group) with ipilimumab, anti-PD-1, anti-PD-1 plus D11, D11 alone, or vehicle in the same dosages as used previously. Some animals’ tumors were collected approximately 10 days after the last treatment dose, whereas for the remaining animals, the tumors were allowed to grow (Supplementary Fig. S7). […] Single-cell suspensions from tumors were sorted to obtain CD45^+ immune cells, which were then subjected to single-cell RNA sequencing (scRNAseq) and TCR sequencing. Next, the immune cell populations were compared across the samples (Fig. 5b, c). […] Another interesting observation from the scRNAseq analysis was that the differential expression of membrane-type 1 matrix metalloproteinase, which is known for its role as a key regulator in cell migration in tissues, was associated with D11 treatment. This finding could lead to a possible new mechanism of action, besides macrophage recruitment, to drive the search for anticancer compounds.
as §3
C57BL/6 mice were purchased from the Charles River Laboratories. In hCTLA-4 mice, the exons encoding for the ECD and transmembrane domains of murine CTLA-4 were replaced with the human versions. […] Tumor volumes were calculated with the formula volume = (width^2 × length)/2. Measurements were recorded every 2 to 3 days. […] For the histopathologic analysis of the internal organs harvested from mice that had been treated with therapeutic compounds or control antibodies, stained sections were prepared from the formalin-fixed tissue and were assessed in a blinded fashion.

[6] = tested on: interaction of CTLA-4 with CD80 and CD86; assay: Luciferase reporter assay, CTLA-4 effector Jurkat T cells with Raji antigen-presenting cells; assay type: cell-based, human
Source text: We first evaluated the inhibitory impacts of the compounds against the interaction between CTLA-4 and CD80 using an amplified luminescent proximity homogeneous (Alpha)LISA assay. In this assay, a biotinylated CD80 binds to streptavidin-coated alpha donor beads, while anti-His AlphaLISA acceptor beads capture His-tagged CTLA-4. Upon binding of CD80 to CTLA-4, the donor and acceptor beads draw near, thus excitation of the donor bead leads to the release of singlet oxygen molecules. Consequently, an energy transfer cascade occurs in the acceptor beads, culminating in an intense peak of light emission at 615 nm (Fig. 1a). […] The compounds’ inhibitory activity against CTLA-4 was confirmed through a luciferase reporter assay involving 2 genetically engineered cell lines. First, we developed a CTLA-4 effector cell line using Jurkat T cells expressing human CTLA-4 and a luciferase reporter driven by a native promoter responsive to T-cell receptor (TCR)/CD28 activation. We also managed to establish an adjacent antigen-presenting cell line utilizing Raji cells, which are capable of expressing constitutively active engineered proteins on their surfaces without requiring antigens for effectivity. The Raji cells will also be able to naturally produce endogenous levels of both CD80 as well as CD86 molecules within the target APCs themselves as they transclude from one host to another. […]

[7] = tested on: CD45+ immune cells from MC38 tumors; assay: Single-cell RNA and TCR sequencing of CD45+ tumor immune cells; assay type: in vivo, hCTLA-4 mice; conditions: scRNAseq of CD45+ tumor cells
Source text: Using another cohort of hCTLA-4 mice inoculated with MC38 cells, we treated animals (n = 5 per group) with ipilimumab, anti-PD-1, anti-PD-1 plus D11, D11 alone, or vehicle in the same dosages as used previously. Some animals’ tumors were collected approximately 10 days after the last treatment dose, whereas for the remaining animals, the tumors were allowed to grow (Supplementary Fig. S7). […] Single-cell suspensions from tumors were sorted to obtain CD45^+ immune cells, which were then subjected to single-cell RNA sequencing (scRNAseq) and TCR sequencing. Next, the immune cell populations were compared across the samples (Fig. 5b, c). […]
Tumors from CTLA-4-humanized MC38 syngeneic mice (n = 3–5 mice) were extracted for single-cell suspension using a gentleMACS Octo Dissociator (Miltenyi Biotec). […] The acquired scRNAseq reads from the 10X Genomics platform were aligned to a reference genome (mm10) using Cell Ranger (V.7.1, 10X Genomics) default parameters. The reads and cells were further filtered with Seurat (V.4.0.3) in R (V.4.1.0). […] The clonality of the TCR repertoire was calculated as a 1-Pielou index value using the formula 1+ ∑(i=1 to n) (pi*ln(pi))/ln(n), where pi is the frequency of clone i for a sample of n unique clones; this metric was normalized to the number of unique clones and ranges from 0 to 1. […]

[8] = tested on: serum cardiac troponin I type 3 (TNNI3); assay: Serum TNNI3 in treated mice; assay type: in vivo; conditions: marker of ipilimumab-induced irAEs
Source text: as §2

[9] = prophylactic setting, 25 mg/kg i.p.
[10] = start at approximately 100 mm^3

Cc1c(Nc2nccc3cc(CN4CC[C@@H](O)C4)cnc23)cccc1-c1cccc(-c2nc3cc(CN4CC[C@@H](C(=O)O)C4)cc(C#N)c3o2)c1C [INCB086550]
tumor development (tumor development): inhibited tumor development

C/C(=N/OCc1ccccc1)c1nc(-c2ccccc2)[nH]c1C [A9]
Tconv (%) ([1]; 10 μM, 6 days): 43.1% | Treg (%) ([1]; 10 μM, 6 days): 12.4% | Tconv (%) ([1]; 50 μM, 6 days): 49.6% | Treg (%) ([1]; 50 μM, 6 days): 20.9% | Tconv: Treg decrease (human cells) ([1]; Table 3 summary, Human CTLA-4/CD80): Y | body weight [2]: no significant weight loss | numbers of tumor-infiltrating Treg cells (MC38 tumors [3]; 25 mg/kg i.p.): reduced | MC38 models (MC38 tumors [3]; Table 3 summary, Mouse or human CTLA-4/mouse CD80): Y | tumor growth after rechallenge with 200,000 MC38 cells (MC38 tumors [3]; mice that completely rejected tumors, vs control group): slower | animal survival (MC38 tumors [3]; [9]): prolonged animal survival | complete tumor rejection / complete response (MC38 tumors [3]; [9]): Four of 10 | tumor growth (MC38 tumors [3]; prophylactic setting, 4 200-μg doses (25 mg/kg) i.p. every other day, start 1 day after inoculation): drastically inhibited tumor growth | tumor growth (MC38 tumors [3]; therapeutic setting, start at tumor volume approximately 100 mm^3): significantly reduced tumor growth | INF-γ stimulation ex vivo (MC38) ([4]; Table 3 summary, Mouse CTLA-4/CD80): Y | tumor-inhibition activity in hCTLA-4 mice compared with non-humanized C57BL/6 mice (MC38 tumors [5]; mouse, in vivo): superior tumor-inhibition activity | development of MC38 tumors (MC38 tumors [5]; [10]): substantially inhibited | promoter-mediated luminescence (blockade of CTLA-4 with CD80 and CD86) [6]: resulted in promoter-mediated luminescence

ipilimumab: an anti-CTLA-4 antibody, first immune checkpoint blockade therapy to receive FDA approval [reference compound]
Tconv (%) ([1]; 5 μg/ml, 6 days): 42.7% | Tconv/Treg ratio ([1]; 5 μg/ml, 6 days): 3.44 | Treg (%) ([1]; 5 μg/ml, 6 days): 12.4% | tumor-infiltrating macrophages [7]: only moderately affected | serum TNNI3 levels [8]: elevated | IFN-γ production ([4]; 3-μg/ml doses): substantially stimulated | tumor inhibition / therapeutic efficacy (MC38 tumors [5]; second cohort (Fig. 5a), start at approximately 100 mm^3): inhibited tumors | development of MC38 tumors (MC38 tumors [5]; [10]): inhibited tumors | promoter-mediated luminescence (blockade of CTLA-4 with CD80 and CD86) [6]: resulted in promoter-mediated luminescence
